pEC50: −log10 of the molar value. Where two headings read alike, the source gives them in different places.

In assay [1] the test system is symmetric dimethylation of arginine (SDMA) of PRMT5 substrates in MCF-7 cells. The assay can be described thus: PRMT5 Cell Target Engagement (TE) Assay. Type of assay: cell-based. The conditions noted are these: 3 days treatment, SDMA high content imaging. From the text: PRMT5 Cell Target Engagement (TE) Assay
The PRMT5 TE assay is a biomarker assay for identifying compounds that inhibit symmetric dimethylation of arginine (SDMA) of PRMT5 substrates. The following substrates have been reported for PRMT5: histone H2A and H4 R3, Histone H3 R2, Histone H3 R8, spliceosome Sm proteins, ribosomal protein RPS10, p53, FEN1, nucleoplasmin, nucleolin, EGFR and EBNA. The assay focuses on detecting symmetrically dimethylated nuclear proteins using high content imaging technology. Detection of the expression of symmetrically dimethylated nuclear proteins is through a mixture of primary rabbit monoclonal antibodies to SDMA (CST 13222), which in turn recognized by an Alexafluor 488 dye-conjugated anti-rabbit IgG secondary antibody. The IN Cell Analyzer 2200 or Opera-Phenix measures nuclear Alexafluor 488 fluorescent dye intensity that is directly related to the level of expression of symmetrically dimethylated nuclear proteins at the single cell level. Nuclear AF488 dye intensities are compared to the mean value for DMSO treated cells (MIN) to report percent of inhibition for each compound-treated well.
In this assay, the cell potency (EC50) of each compound was determined from a ten point (1:3 serial dilution; top compound concentration of 10000 nM) titration curve using the following outlined procedure. Each well of a BD falcon collagen coated black/clear bottom 384-well plate was seeded with 4000 MCF-7 cells in 30 μl media and allowed to attach for 5 h. Media is ATCC-formulated Eagle's Minimum Essential Medium, Catalog No. 30-2003. To make the complete growth medium, the following components were added to the base medium: 0.01 mg/mL human recombinant insulin; fetal bovine serum to a final concentration of 10%. Additional 30 μl of media containing 2× compounds were added to each well. Cells were treated for 3 days in 37° C. CO2 incubator. On day 3, cells were fixed with Cytofix, permeabilized with 0.4% Triton-X-100/Cytofix, and washed with D-PBS without Ca/Mg. Cells were blocked with Licor Odessey blocking reagent for 1 h at room temperature, followed by incubation with anti-SDMA (1:1000) antibody at 4° C. overnight. 1° antibody was removed, followed by three washings with DPBS without Ca/Mg and 0.05% Tween20. Hoechst (5 μg/mL), Cell Mask deep stain (1:2000) and Alexa488-conjugated goat anti-rabbit IgG (2 μg/mL) was added for 1 h at room temperature. A final washing step (three washes) was performed before sealing plate for imaging on In Cell Analyzer 2200 or Opera-Phenix. Images from analyzer were uploaded to Columbus (at WP or BOS) for image analysis. IC50 values were determined by 4 parameters robust fit of percent fluorescence units vs. (Log10) compound concentrations.

In assay [2] the target is T1, Full-length (FL)-PRMT5-MEP50 enzyme complex (Homo sapiens, UniProt O14744).
T1 construct: Full-length (FL)-PRMT5-MEP50 enzyme complex (recombinant proteins from baculovirus-transfected Sf21 cells: FL-PRMT5; MW=73837 kDa and FL-MEP50; MW=38614); made in house; host or cells: baculovirus-transfected Sf21 cells
T1 sequence (O14744 whole entry): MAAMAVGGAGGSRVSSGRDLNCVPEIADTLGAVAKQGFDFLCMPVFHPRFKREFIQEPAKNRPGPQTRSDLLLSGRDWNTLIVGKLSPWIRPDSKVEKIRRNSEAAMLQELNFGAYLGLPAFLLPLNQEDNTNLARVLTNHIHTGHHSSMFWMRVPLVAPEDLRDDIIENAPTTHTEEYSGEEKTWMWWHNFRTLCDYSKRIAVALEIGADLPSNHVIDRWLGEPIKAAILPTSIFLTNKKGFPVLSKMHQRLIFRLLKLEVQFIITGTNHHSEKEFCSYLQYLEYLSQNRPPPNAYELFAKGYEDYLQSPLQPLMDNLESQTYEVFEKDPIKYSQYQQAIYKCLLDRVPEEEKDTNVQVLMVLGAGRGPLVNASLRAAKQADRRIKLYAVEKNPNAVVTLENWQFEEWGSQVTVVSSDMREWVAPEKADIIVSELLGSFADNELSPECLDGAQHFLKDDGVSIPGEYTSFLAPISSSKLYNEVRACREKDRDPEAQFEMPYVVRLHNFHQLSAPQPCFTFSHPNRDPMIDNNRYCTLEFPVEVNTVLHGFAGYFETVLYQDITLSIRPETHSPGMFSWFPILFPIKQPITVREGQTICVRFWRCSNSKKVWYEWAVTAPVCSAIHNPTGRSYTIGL
T1 sequence (Q9BQA1 whole entry partner): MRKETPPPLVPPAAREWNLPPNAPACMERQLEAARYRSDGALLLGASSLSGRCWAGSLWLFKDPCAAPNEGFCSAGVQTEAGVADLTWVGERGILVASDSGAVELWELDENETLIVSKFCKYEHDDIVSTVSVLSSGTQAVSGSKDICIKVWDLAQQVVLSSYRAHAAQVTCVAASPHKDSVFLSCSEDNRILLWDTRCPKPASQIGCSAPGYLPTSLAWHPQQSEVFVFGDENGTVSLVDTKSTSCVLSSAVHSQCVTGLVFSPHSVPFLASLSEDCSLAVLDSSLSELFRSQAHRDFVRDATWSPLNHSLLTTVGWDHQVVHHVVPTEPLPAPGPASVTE
Nature of the assay: PRMT5-MEP50 Enzyme Methylation Assay (Version A). Type of assay: biochemical. As to the method: PRMT5-MEP50 Enzyme Methylation Assay (Version A)
PRMT5-MEP50 biochemical assay is a direct measurement of the methylation activity of the enzyme complex on a short peptide substrate derived from the N-terminus of H4 histone. Methylation experiment was performed with recombinant PRMT5-MEP50 protein complex. The assessment of inhibitory effect of small molecules was measured by the effectiveness of the compounds to inhibit this reaction (EC50).
In this assay, the potency (EC50) of each compound was determined from a twenty-point (1:2 serial dilution; top compound concentration of 100000 nM) titration curve using the following outlined procedure. To each well of a white ProxiPlus 384 well-plate, 100 nL of compound (1% DMSO in final assay volume of 10 μL) was dispensed, followed by the addition of 8 μL of 1× assay buffer (50 mM Bicine pH 8.0, 1 mM DTT, 0.004% Tween20, 0.01% BSA) containing 1.25 nM of Full-length (FL)-PRMT5-MEP50 enzyme complex (recombinant proteins from baculovirus-transfected Sf21 cells: FL-PRMT5; MW=[…] and FL-MEP50; MW=38614) and 1 μL of 150 μM S-(5′-Adenosyl)-L-Methionine Chloride (SAM). A plate were sealed and placed in a 37° C. humidified chamber for a 60 minutes pre-incubation with compound. Subsequently, each reaction was initiated by the addition of 1 μL 1× assay buffer containing 750 nM biotinylated H4R3(Me1) peptide. The final reaction in each well of 10 μL consists of 1.0 nM PRMT5-MEP50, 75 nM biotinylated-peptide, and 15 μM SAM. Methylation reactions were allowed to proceed for 150 minutes in a sealed plate at 37° C. Reactions were immediately quenched by the addition of 1 μL of 5% formic acid. A plate was then frozen and shipped to SAMDI™ Tech Inc. to determine the percent conversion from H4R3(Me1) to H4R3(Me2). Dose-response curves were generated by plotting percent effect (% product conversion; Y-axis) vs. Log 10 compound concentrations (X-axis). EC50 values were determined by non-linear regression according to models for either sigmoidal (4 parameters) or biphasic (7 parameters) dose-response curves.

[3] abbreviates: second value of 7 parameter biphasic fit, read-out: Enzyme Methylation Assay Version A (EC50 2).
Setting [4] is: single EC50 = 4 parameter single site sigmoidal fit, EC50 1 = first value of 7 parameter biphasic fit, read-out: Enzyme Methylation Assay Version A (EC50 or EC50 1).

Turning to `CN1CCC(Oc2nc(Br)cn3cc(C(=O)N4CC[C@]5(Cc6ccccc6CN5)[C@H](O)C4)nc23)C1=O` (single isomer, unassigned) [Example 95, (R or S)-3-((6-bromo-2-((3R,3′R)-3′-hydroxy-1,4-dihydro-2H-spiro[isoquinoline-3,4′-piperidine]-1′-carbonyl)imidazo[1,2-a]pyrazin-8-yl)oxy)-1-methylpyrrolidin-2-one], the results for the pEC50 in assay [1], in assay [2] (setting [3]) and in assay [2] (setting [4]) were 7.54, 6.33 and 8.99, respectively.
With `O=C(c1cn2cc(Br)nc(OC3CCOC3)c2n1)N1CC[C@]2(Cc3ccccc3CN2)[C@H](O)C1` (single isomer, unassigned) [Example 98, (6-bromo-8-(((S or R)(tetrahydrofuran-3-yl)oxy)imidazo[1,2-a]pyrazin-2-yl)((3R,3′R)-3′-hydroxy-1,4-dihydro-2H-spiro[isoquinoline-3,4′-piperidin]-1′-yl)methanone], the pEC50 (as a rule, the EC50 on a negative log10 scale, so that one unit is a factor of ten) in assay [1] (Homo sapiens, MCF7, 72 h) was 8.16; in assay [2] (setting [3]), 6.98; in assay [2] (setting [4]) it was 9.72.
In the case of `O=C(c1cn2cc(Br)nc(OC3CCOC3)c2n1)N1CC[C@]2(Cc3ccccc3CN2)[C@H](O)C1` (single isomer, unassigned) [Example 99, (6-bromo-8-(((S or R)(tetrahydrofuran-3-yl)oxy)imidazo[1,2-a]pyrazin-2-yl)((3R,3′R)-3′-hydroxy-1,4-dihydro-2H-spiro[isoquinoline-3,4′-piperidin]-1′-yl)methanone], the pEC50 in assay [1] is 8.11; in assay [2] (setting [3]) it was 6.83; in assay [2] (setting [4]), 9.37.
For the compound `O=C(c1cn2cc(Br)nc(OCC3CCCO3)c2n1)N1CC[C@]2(Cc3ccccc3CN2)[C@H](O)C1` (single isomer, unassigned) [Example 100, (6-bromo-8-(((S or R)-tetrahydrofuran-2-yl)methoxy)imidazo[1,2-a]pyrazin-2-yl)((3R,3′R)-3′-hydroxy-1,4-dihydro-2H-spiro[isoquinoline-3,4′-piperidin]-1′-yl)methanone], the pEC50 in assay [1] (Homo sapiens, MCF7, 72 h) was 8.38; in assay [2] (setting [3]), 7.22; in assay [2] (setting [4]), 9.57.
For the compound `O=C(c1cn2cc(Br)nc(OCC3CCCO3)c2n1)N1CC[C@]2(Cc3ccccc3CN2)[C@H](O)C1` (single isomer, unassigned) [Example 101, (6-bromo-8-(((S or R)-tetrahydrofuran-2-yl)methoxy)imidazo[1,2-a]pyrazin-2-yl)((3R,3′R)-3′-hydroxy-1,4-dihydro-2H-spiro[isoquinoline-3,4′-piperidin]-1′-yl)methanone], the pEC50 in assay [1] was 8.15; in assay [2] (setting [3]) it was 7.25; in assay [2] (setting [4]) it was 9.53.
In the case of `CC(n1ccc(C(=O)N2CC[C@]3(Cc4ccccc4CN3)[C@H](O)C2)cc1=O)C(F)(F)F` (single isomer, unassigned) [Example 102, 4-((3R,3′R)-3′-hydroxy-2,4-dihydro-1H-spiro[isoquinoline-3,4′-piperidin]-1′-ylcarbonyl)-1-((S or R)-1,1,1-trifluoropropan-2-yl)pyridin-2(1H)-one], the values for the pEC50 in assay [1], in assay [2] (setting [3]) and in assay [2] (setting [4]) were 6.10, 4.46 and 7.28, respectively.
In the same order, the values of `CC(n1ccc(C(=O)N2CC[C@]3(Cc4ccccc4CN3)[C@H](O)C2)cc1=O)C(F)(F)F` (single isomer, unassigned) [Example 103, 4-((3R,3′R)-3′-hydroxy-2,4-dihydro-1H-spiro[isoquinoline-3,4′-piperidin]-1′-ylcarbonyl)-1-((R or S)1,1,1-trifluoropropan-2-yl)pyridin-2(1H)-one] are 5.54, 4.10 and 6.77.
Regarding `CCC1Oc2ccc(C(=O)N3CC[C@]4(Cc5ccccc5CN4)[C@H](O)C3)cc2NC1=O` (single isomer, unassigned) [Example 104, (2R or 2S)-2-ethyl-6-((3R,3′R)-3′-hydroxy-1,4-dihydro-2H-spiro[isoquinoline-3,4′-piperidine]-1′-carbonyl)-2H-benzo[b][1,4]oxazin-3(4H)-one], the pEC50 in assay [1] was 7.08; in assay [2] (setting [3]), 5.85; in assay [2] (setting [4]) it was 8.84.

(Values after patent US12441730B2, “PRMT5 inhibitors” (Merck Sharp & Dohme LLC, priority 2019, dated 2025).)
